Measurements from ChEMBL document CHEMBL4765407, “Design, synthesis and high antitumor potential of new unsymmetrical bisacridine derivatives towards human solid tumors, specifically pancreatic cancers and their unique ability to stabilize DNA G-quadruplexes” (Eur J Med Chem, 2020).

What was measured:
DU-145 [1] = assay: Cytotoxicity against human DU-145 cells assessed as reduction in cell viability measured after 72 hrs by SRB assay; format: functional, cell-based; conditions: DU-145, 72 h
HCT-116 = assay: Cytotoxicity against human HCT-116 cells assessed as reduction in cell viability measured after 72 hrs by SRB assay; format: functional, cell-based; conditions: HCT-116, 72 h
PANC-1 [2] = assay: Cytotoxicity against human PANC-1 cells assessed as reduction in cell viability measured after 72 hrs by SRB assay; format: functional, cell-based; conditions: PANC-1, 72 h
MIA PaCa-2 [3] = assay: Cytotoxicity against human MIA PaCa-2 cells assessed as reduction in cell viability measured after 72 hrs by SRB assay; format: functional, cell-based; conditions: MIA PaCa-2, 72 h
BXPC-3 [4] = assay: Cytotoxicity against human BXPC-3 cells assessed as reduction in cell viability measured after 72 hrs by SRB assay; format: functional, cell-based; conditions: BXPC-3, 72 h
ASPC1 [5] = assay: Cytotoxicity against human ASPC1 cells assessed as reduction in cell viability measured after 72 hrs by SRB assay; format: functional, cell-based; conditions: ASPC1, 72 h
PANC-1 [6] = assay: Antitumour activity against human PANC-1 cells xenografted in Crl:Nu-Foxnl nu mouse assessed as inhibition of tumour growth at total effective dose of 16 mg/kg, iv measured on day 40; format: functional; conditions: PANC-1, iv, 960 h, time 40 day, read-out: TGI
PANC-1 [7] = assay: Antitumour activity against human PANC-1 cells xenografted in Crl:Nu-Foxnl nu mouse assessed as inhibition of tumour growth at total effective dose of 120 mg/kg, iv measured on day 37; format: functional; conditions: PANC-1, iv, 888 h, time 37 day, read-out: TGI
PANC-1 [8] = assay: Antitumour activity against human PANC-1 cells xenografted in Crl:Nu-Foxnl nu mouse assessed as inhibition of tumour growth at total effective dose of 160 mg/kg, iv measured on day 56; format: functional; conditions: PANC-1, iv, 1344 h, time 56 day, read-out: TGI
MDA-MB-231 [9] = assay: Cytotoxicity against human MDA-MB-231 cells assessed as reduction in cell viability measured after 72 hrs by SRB assay; format: functional, cell-based; conditions: MDA-MB-231, 72 h
Capan-2 = assay: Cytotoxicity against human Capan-2 cells assessed as reduction in cell viability measured after 72 hrs by SRB assay; format: functional, cell-based; conditions: Capan-2, 72 h
PANC-1 [10] = assay: Antitumour activity against human PANC-1 cells xenografted in Crl:Nu-Foxnl nu mouse assessed as inhibition of tumour growth at total effective dose of 8 mg/kg, iv measured on day 52; format: functional; conditions: PANC-1, iv, 1248 h, time 52 day, read-out: TGI
Quadruplex DNA [11] = assay: Stabilization of 5'-FAM/3'-TAMRA labeled c-Myc promoter G4 quadruplex DNA FPu18 (unknown origin) assessed as change in melting temperature at 10 microM measured after 15 mins by FRET assay; format: nucleic-acid assay
Quadruplex DNA [12] = assay: Stabilization of 5'-FAM/3'-TAMRA labeled telomeric G4 quadruplex DNA F21T (unknown origin) assessed as change in melting temperature at 10 microM measured after 15 mins by FRET assay; format: nucleic-acid assay
Quadruplex DNA [13] = assay: Stabilization of 5'-FAM/3'-TAMRA labeled K-Ras G4 quadruplex DNA (unknown origin) assessed as change in melting temperature at 10 microM measured after 15 mins by FRET assay; format: nucleic-acid assay
[14] = Stabilization of ds 5'-FAM-d(TATAGCTATA-HEG-TATAGCTATA)-TAMRA-3' (unknown origin) assessed as change in melting temperature at 10 microM measured after 15 mins by FRET assay; conditions: Homo sapiens
NCI-H460 = assay: Cytotoxicity against human NCI-H460 cells assessed as reduction in cell viability measured after 72 hrs by SRB assay; format: functional, cell-based; conditions: NCI-H460, 72 h
PANC-1 [15] = assay: Antitumour activity against human PANC-1 cells xenografted in Crl:Nu-Foxnl nu mouse assessed as inhibition of tumour growth at total effective dose of 80 mg/kg, iv measured on day 56; format: functional; conditions: PANC-1, iv, 1344 h, time 56 day, read-out: TGI
MIA PaCa-2 [16] = assay: Antitumour activity against human MIA PaCa-2 cells xenografted in Crl:Nu-Foxnl nu mouse assessed as inhibition of tumour growth at total effective dose of 20 mg/kg, ip measured on day 33; format: functional; conditions: MIA PaCa-2, ip, 792 h, time 33 day, read-out: TGI
BXPC-3 [17] = assay: Antitumour activity against human BXPC-3 cells xenografted in Crl:Nu-Foxnl nu mouse assessed as inhibition of tumour growth at total effective dose of 80 mg/kg, iv measured on day 32; format: functional; conditions: BXPC-3, iv, 768 h, time 32 day, read-out: TGI
PANC-1 [18] = assay: Antitumour activity against human PANC-1 cells xenografted in Crl:Nu-Foxnl nu mouse assessed as inhibition of tumour growth at total effective dose of 48 mg/kg, iv measured on day 32; format: functional; conditions: PANC-1, iv, 768 h, time 32 day, read-out: TGI
[19] = Toxicity in BALB/c mouse assessed as effect on body weight at 60 mg/kg, iv administered as single dose measured for 64 days; format: organism-based; conditions: in vivo, 1536 h, time 64 day
[20] = Toxicity in BALB/c mouse assessed as macroscopic anatomopathological changes at 60 mg/kg, iv administered as single dose measured for 64 days; format: organism-based; conditions: in vivo, 1536 h, time 64 day
MCF7 = assay: Cytotoxicity against human MCF7 cells assessed as reduction in cell viability measured after 72 hrs by SRB assay; format: functional, cell-based; conditions: MCF7, 72 h
PANC-1 [21] = assay: Antitumour activity against human PANC-1 cells xenografted in Crl:Nu-Foxnl nu mouse assessed as inhibition of tumour growth at total effective dose of 16 mg/kg, iv measured on day 33; format: functional; conditions: PANC-1, iv, 792 h, time 33 day, read-out: TGI
MIA PaCa-2 [22] = assay: Antitumour activity against human MIA PaCa-2 cells xenografted in Crl:Nu-Foxnl nu mouse assessed as inhibition of tumour growth at total effective dose of 12 mg/kg, ip measured on day 15; format: functional; conditions: MIA PaCa-2, ip, 360 h, time 15 day, read-out: TGI
BXPC-3 [23] = assay: Antitumour activity against human BXPC-3 cells xenografted in Crl:Nu-Foxnl nu mouse assessed as inhibition of tumour growth at total effective dose of 16 mg/kg, iv measured on day 44; format: functional; conditions: BXPC-3, iv, 1056 h, time 44 day, read-out: TGI
BXPC-3 [24] = assay: Antitumour activity against human BXPC-3 cells xenografted in Crl:Nu-Foxnl nu mouse assessed as inhibition of tumour growth at total effective dose of 16 mg/kg, iv measured on day 32; format: functional; conditions: BXPC-3, iv, 768 h, time 32 day, read-out: TGI
ASPC1 [25] = assay: Antitumour activity against human ASPC1 cells xenografted in Crl:Nu-Foxnl nu mouse assessed as inhibition of tumour growth at total effective dose of 16 mg/kg, iv measured on day 39; format: functional; conditions: 936 h, time 39 day, read-out: TGI
DU-145 [26] = assay: Antitumour activity against human DU-145 cells xenografted in Crl:Nu-Foxnl nu mouse assessed as inhibition of tumour growth at total effective dose of 16 mg/kg, iv measured on day 33; format: functional; conditions: DU-145, iv, 792 h, time 33 day, read-out: TGI
MDA-MB-231 [27] = assay: Antitumour activity against human MDA-MB-231 cells xenografted in Crl:Nu-Foxnl nu mouse assessed as inhibition of tumour growth at total effective dose of 32 mg/kg, iv measured on day 32; format: functional; conditions: MDA-MB-231, iv, 768 h, time 32 day, read-out: TGI
[28] = Toxicity in BALB/c mouse assessed as effect on body weight at total dose of 6 mg/kg, iv administered as 3 times per week for 2 weeks measured for 71 days; format: organism-based; conditions: in vivo, 1704 h, time 71 day
[29] = Toxicity in BALB/c mouse assessed as macroscopic anatomopathological changes at total dose of 6 mg/kg, iv administered as 3 times per week for 2 weeks measured for 71 days; format: organism-based; conditions: in vivo, 1704 h, time 71 day

ΔTm (Quadruplex DNA [11]) | ΔTm (Quadruplex DNA [12]) | ΔTm (Quadruplex DNA [13]) | ΔTm [14] | SMILES | IC50 (DU-145 [1]) | IC50 (HCT-116) | IC50 (PANC-1 [2]) | IC50 (MIA PaCa-2 [3]) | IC50 (BXPC-3 [4]) | IC50 (ASPC1 [5]) | IC50 (MDA-MB-231 [9]) | IC50 (Capan-2) | IC50 (NCI-H460) | other results
 |  |  |  | Cc1nc2ccc(NCCCN3CCN(CCC(N)c4ccc5nc6ccccc6cc5c4[N+](=O)[O-])CC3)c3c(=O)c4cc(O)ccc4n1c23 (centres undefined) | 24 nM | 27 nM | 39 nM | 18 nM | 152 nM | 151 nM |  |  |  | inhibition in vivo at 16 mg/kg (PANC-1 [6]): 68%; inhibition in vivo at 120 mg/kg (PANC-1 [7]): 64%; inhibition in vivo at 160 mg/kg (PANC-1 [8]): 69%
33.2 °C | 26.1 °C | 26.6 °C | 3.9 °C | NC(CCN1CCN(CCCNc2ccc3nnn4c5ccccc5c(=O)c2c34)CC1)c1ccc2nc3ccccc3cc2c1[N+](=O)[O-] (centres undefined) | 22 nM | 22 nM | 138 nM | 41 nM | 120 nM | 103 nM | 152 nM | 33 nM |  | inhibition in vivo at 8 mg/kg (PANC-1 [10]): 39%
27.6 °C | 18.3 °C | 10.7 °C | 2.8 °C | Cc1cc(NCCCN(C)CCCNc2ccc3ncn4c5ccc(O)cc5c(=O)c2c34)c([N+](=O)[O-])c2cc3ccccc3nc12 | 59 nM | 40 nM | 216 nM | 59 nM | 169 nM | 152 nM | 52 nM | 52 nM | 95 nM | inhibition in vivo at 80 mg/kg (PANC-1 [15]): 64%; inhibition in vivo at 20 mg/kg (MIA PaCa-2 [16]): 55%; inhibition in vivo at 80 mg/kg (BXPC-3 [17]): 77%; inhibition in vivo at 48 mg/kg (PANC-1 [18]): 63%; Activity [19]: Non-Toxic; Activity [20]: Non-Toxic
23.3 °C | 30 °C | 27.6 °C | 5.4 °C | O=c1c2ccccc2n2cnc3ccc(NCCCN4CCN(CCCNc5c6ccccc6nc6cccc([N+](=O)[O-])c56)CC4)c1c32 | 22 nM | 25 nM | 24 nM | 39 nM | 54 nM | 69 nM | 21 nM | 32 nM | 15 nM | IC50 (MCF7): 82 nM; inhibition in vivo at 16 mg/kg (PANC-1 [21]): 80%; inhibition in vivo at 12 mg/kg (MIA PaCa-2 [22]): 38%; inhibition in vivo at 16 mg/kg (BXPC-3 [23]): 81%; inhibition in vivo at 16 mg/kg (BXPC-3 [24]): 48%; inhibition in vivo at 16 mg/kg (ASPC1 [25]): 29%; inhibition in vivo at 16 mg/kg (DU-145 [26]): 61%; inhibition in vivo at 32 mg/kg (MDA-MB-231 [27]): 53%; Activity [28]: Non-Toxic; Activity [29]: Non-Toxic
